Measured values as given in US10596268B2, “Conjugate of dezocine and polyethylene glycol” (JenKem Technology Co., Ltd. (Beijing), priority 2016, dated 2020).

Experiments:
[1] = in vivo; cited from earlier work
CFA rat model = assay: Pharmacodynamic experiment: Frey's hair pain threshold in CFA rat model; format: in vivo, SD rats; settings: oral 10 mg/kg; for Pain threshold value, Frey's hair: mean ± standard deviation
[2] = Pharmacokinetic experiment: drug concentration in plasma of SD rats after oral administration (LC-MS/MS); settings: 10 mg/kg; for AUC(0-t) / Cmax / Tmax / half-life: male, SD, rat, po; for AUClast (Plasma) / Cmax (Plasma) / t1/2 (Plasma) / tmax (Plasma): SD rats, oral
[3] = Pharmacokinetic experiment: drug concentration in brain tissue of SD rats after oral administration (LC-MS/MS); settings: 10 mg/kg; for AUClast (Brain) / Cmax (Brain) / AUClast Ratio (Brain/Plasma) / t1/2 (Brain) / tmax (Brain): SD rats, oral; for AUClast (Brain) / Cmax (Brain) / t1/2 (Brain) / tmax (Brain): brain tissue; for Kp / Tmax / half-life: male, SD, rat, po; for Kp: brain and plasma; for Tmax / half-life: brain
[4] = 0 h (basal value before administration)

SMILES | Pain threshold value, Frey's hair (CFA rat model; [4]) [g] | Pain threshold value, Frey's hair (CFA rat model; 0.25 h after administration) [g] | Pain threshold value, Frey's hair (CFA rat model; 2 h after administration) [g] | Pain threshold value, Frey's hair (CFA rat model; 6 h after administration) [g] | Pain threshold value, Frey's hair (CFA rat model; 24 h after administration) [g] | AUC(0-t) [2] [ng·h/mL] | Cmax [2] [ng/mL] | Tmax [2] [h] | half-life [2] [h] | AUClast (Brain) [3] [ng·h/g] | Cmax (Brain) [3] [ng/g] | Kp [3] | Tmax [3] [h] | half-life [3] [h] | AUClast (Plasma) [2] [ng·h/mL] | Cmax (Plasma) [2] [ng/mL] | t1/2 (Plasma) [2] [h] | tmax (Plasma) [2] [h] | AUClast Ratio (Brain/Plasma) [3] | t1/2 (Brain) [3] [h] | also measured
C[C@@]12CCCCC[C@@H](Cc3ccc(O)cc31)[C@@H]2N [JK-2215D00, 13-amino-5,6,7,8,9,10,11,12-octahydro-5-methyl-5,11-methylenebenzocyclodecen-3-ol, reference compound] | 7.7 ± 1.1 | 9.8 ± 1.0 | 10.2 ± 2.7 | 9.2 ± 1.4 | 7.5 ± 1.8 | 232 | 193 | 1 | 1.41 | 267 | 221 | 1.15 | 1 | 2.05 | – | – | – | – | – | – | analgesic effect relative to pethidine [1]: 5-9 times; average peak concentration at which adverse reactions occur [1]: 45 µg/L; blood concentration producing a potent analgesic effect [1]: 5 to 9 µg/L; analgesic effect at 6 h after administration (CFA rat model; 6 h): not significant
COCCOCCOCCOCCOCCOCCOc1ccc2c(c1)C1(C)CCCCCC(C2)C1N (stereo not drawn) [JK-2215D01, Monomethoxyhexaethylene Glycol-Dezocine Conjugate] | 7.6 ± 0.8 | 8.7 ± 1.3 | 9.1 ± 1.3 | 8.7 ± 1.1 | 7.8 ± 1.4 | – | – | – | – | 925 | 147 | – | – | – | 1366 | 345 | 4.33 | 3 | 0.734 | 17.6 | tmax (Brain) [3]: 8 h
COCCOCCOCCOCCOCCOCCN[C@H]1[C@H]2CCCCC[C@]1(C)c1cc(O)ccc1C2 [JK-2215D02, Monomethoxyhexaethylene Glycol-Dezocine Conjugate] | 7.8 ± 0.8 | 10.3 ± 1.2 | 12.1 ± 1.5 | 13.2 ± 0.9 | 10.7 ± 1.5 | – | – | – | – | 993 | 166 | – | – | – | 1312 | 339 | 4.45 | 3 | 0.757 | 18.7 | tmax (Brain) [3]: 8 h
C[C@@]12CCCCC[C@@H](Cc3ccc(O)cc31)[C@@H]2NCCOCCOCCOCCOCCN[C@H]1[C@H]2CCCCC[C@]1(C)c1cc(O)ccc1C2 [JK-2215D03, Pentaethylene Glycol-Dezocine Conjugate] | 7.7 ± 1.4 | 9.2 ± 1.4 | 11.2 ± 2.0 | 11.4 ± 0.9 | 10.6 ± 2.0 | 1230 | 344 | 2 | 4.12 | 813 | 129 | 0.659 | 7 | 19.7 | – | – | – | – | – | – | –
